Data from paper PMC8392382, “Flavonoids as Human Intestinal α-Glucosidase Inhibitors” (Foods, 2021).
Marks after values point to notes of the source that are not given here.

How the values were obtained:
human maltase = assay: Maltase inhibition in Caco-2/TC7 cell-free extract, maltose as substrate, HPAE-PAD; assay type: biochemical; settings: for IC50 / 15% inhibitory concentration (IC15) Maltase / 25% inhibitory concentration (IC25) Maltase: Caco-2/TC7 CFE, mean ± SEM, n = 3; for IC50: 20 mM maltose, 10 min 37 °C, read-out: 50% inhibitory concentration (IC50) Maltase; for 15% inhibitory concentration (IC15) Maltase / 25% inhibitory concentration (IC25) Maltase: maltose; for percent inhibition of maltase at maximum concentration tested: maximum concentration: acarbose 200, EGCG 1500, quercetin 200, quercetagetin 50, kaempferol 40, galangin 25 µM
Description: Disaccharides and monosaccharides were analyzed by HPAE-PAD on the Dionex™ Integrion™ HPIC™ system (Thermo Fisher Scientific). Separation of the carbohydrates was achieved on a CarboPac PA210 column (2 × 150 mm), preceded by a CarboPac PA210 Guard column (2 × 30 mm), with the column and compartment temperatures maintained at 30 °C and 20 °C, respectively. Eluent was generated using a Dionex™ EGC 500 KOH eluent generator cartridge with Dionex™ continuously regenerated-anion trap column 600, with eluent concentration following a multistep gradient: 12 mM for 12 min, 100 mM for 8 min and 12 mM for 12 min, at a flow rate of 0.2 mL/min and with a sample injection volume of 2.5 μL. Detection was performed using a gold working electrode and AgCl reference electrode at pH ~ 12.0, with a collection rate of 2.00 Hz using the “Gold, Carbo, Quad” waveform. The total run time per sample was 32 min, with 3 min allowed between analyses for sample injection by autosampler. A wash injection of only H2O while following the same multistep eluent gradient was performed at the end of every batch (12–14 samples). All injections were performed in duplicate and peak identification was achieved by comparing retention times to the standards. Dionex™ Chromeleon™ 7 Chromatography Data System, version 7.2.9 (Thermo Fisher Scientific, Waltham, MA, USA), was used to process the chromatograms, ensuring peaks were suitably integrated before recording peak area. Sugars were quantified from peak areas using standard curves, with the standards prepared in the same buffer as the samples.
(§1) To mimic intestinal digestion, an in vitro assay using Caco-2/TC7 cell extracts containing sucrase, maltase and isomaltase was conducted. Frozen cells were thawed, 1 mL ice-cold SPB added and then passed through a 21-G needle 15–20 times. The lysate was centrifuged at 14,000× g, 10 min at 4 °C and the supernatant containing cell-free extract (CFE) collected. Total protein concentration in the CFEs was determined by Bradford assay, using the Pierce Coomassie Bradford reagent and BSA standards (Thermo Fisher Scientific, Waltham, MA, USA).
(§2) Assay mixtures, total volume 250 µL, containing CFE (final protein concentration at 0.1–0.35 mg/mL), with or without various concentrations of inhibitors/flavonoids, were prepared and kept on ice. The enzyme reaction was initiated by the addition of ≥20 mM sucrose, maltose or isomaltose and immediately incubating in a 37 °C water bath for 10 min (or various time points during method setup and validation). Following incubation, the enzyme activity was terminated by incubating in a 96 °C water bath for a further 10 min. A positive control without any added inhibitor/flavonoid was simultaneously tested in each batch, and negative controls without enzymes or substrates were also assayed to evaluate the stability of the inhibitors/compounds. Samples were prepared for HPAE-PAD analysis as described in Section 2.3. Specific enzyme activities were determined (U/mg CFE protein) and expressed as a percentage of control enzyme activities accordingly.
Controls (CFE and substrate only) were prepared by replacing the volume of inhibitor with SPB. Activities of sucrase, maltase and isomaltase were considered as 100% (or 0% inhibition) in the absence of an inhibitor. […] Estimation of inhibition values were determined in GraphPad Prism and the percentage of inhibition of the sample was calculated following Equation (7) below, where SA = specific activity:(7) Inhibition %=SAcontrol − SAsample/SAcontrol×100
Enzyme assays were performed at least once for CFEs from biological triplicates, with duplicate injections of each analyzed by HPAE-PAD. MS Excel (Microsoft, Redmond, WA, USA) was used for data processing and analysis. Final inhibition values were expressed as the percentage of control activity (%). […]

human sucrase = target: T1, human sucrase (Homo sapiens, UniProt P14410); assay: Sucrase inhibition in Caco-2/TC7 cell-free extract, sucrose as substrate, HPAE-PAD; assay type: biochemical; settings: for 15% inhibitory concentration (IC15) Sucrase / 25% inhibitory concentration (IC25) Sucrase / IC50: Caco-2/TC7 CFE, mean ± SEM, n = 3; for 15% inhibitory concentration (IC15) Sucrase / 25% inhibitory concentration (IC25) Sucrase: sucrose; for IC50: 20 mM sucrose, 10 min 37 °C, read-out: 50% inhibitory concentration (IC50) Sucrase; for percent inhibition of sucrase at maximum concentration tested: maximum concentration: acarbose 200, EGCG 1500, quercetin 200, quercetagetin 50, kaempferol 40, galangin 25 µM
T1 construct: an in vitro assay using Caco-2/TC7 cell extracts containing sucrase, maltase and isomaltase was conducted; endogenous in cells; host or cells: Caco-2/TC7 (human colon adenocarcinoma), 21 days post-confluence, crude cell-free extract
T1 sequence (P14410 whole entry): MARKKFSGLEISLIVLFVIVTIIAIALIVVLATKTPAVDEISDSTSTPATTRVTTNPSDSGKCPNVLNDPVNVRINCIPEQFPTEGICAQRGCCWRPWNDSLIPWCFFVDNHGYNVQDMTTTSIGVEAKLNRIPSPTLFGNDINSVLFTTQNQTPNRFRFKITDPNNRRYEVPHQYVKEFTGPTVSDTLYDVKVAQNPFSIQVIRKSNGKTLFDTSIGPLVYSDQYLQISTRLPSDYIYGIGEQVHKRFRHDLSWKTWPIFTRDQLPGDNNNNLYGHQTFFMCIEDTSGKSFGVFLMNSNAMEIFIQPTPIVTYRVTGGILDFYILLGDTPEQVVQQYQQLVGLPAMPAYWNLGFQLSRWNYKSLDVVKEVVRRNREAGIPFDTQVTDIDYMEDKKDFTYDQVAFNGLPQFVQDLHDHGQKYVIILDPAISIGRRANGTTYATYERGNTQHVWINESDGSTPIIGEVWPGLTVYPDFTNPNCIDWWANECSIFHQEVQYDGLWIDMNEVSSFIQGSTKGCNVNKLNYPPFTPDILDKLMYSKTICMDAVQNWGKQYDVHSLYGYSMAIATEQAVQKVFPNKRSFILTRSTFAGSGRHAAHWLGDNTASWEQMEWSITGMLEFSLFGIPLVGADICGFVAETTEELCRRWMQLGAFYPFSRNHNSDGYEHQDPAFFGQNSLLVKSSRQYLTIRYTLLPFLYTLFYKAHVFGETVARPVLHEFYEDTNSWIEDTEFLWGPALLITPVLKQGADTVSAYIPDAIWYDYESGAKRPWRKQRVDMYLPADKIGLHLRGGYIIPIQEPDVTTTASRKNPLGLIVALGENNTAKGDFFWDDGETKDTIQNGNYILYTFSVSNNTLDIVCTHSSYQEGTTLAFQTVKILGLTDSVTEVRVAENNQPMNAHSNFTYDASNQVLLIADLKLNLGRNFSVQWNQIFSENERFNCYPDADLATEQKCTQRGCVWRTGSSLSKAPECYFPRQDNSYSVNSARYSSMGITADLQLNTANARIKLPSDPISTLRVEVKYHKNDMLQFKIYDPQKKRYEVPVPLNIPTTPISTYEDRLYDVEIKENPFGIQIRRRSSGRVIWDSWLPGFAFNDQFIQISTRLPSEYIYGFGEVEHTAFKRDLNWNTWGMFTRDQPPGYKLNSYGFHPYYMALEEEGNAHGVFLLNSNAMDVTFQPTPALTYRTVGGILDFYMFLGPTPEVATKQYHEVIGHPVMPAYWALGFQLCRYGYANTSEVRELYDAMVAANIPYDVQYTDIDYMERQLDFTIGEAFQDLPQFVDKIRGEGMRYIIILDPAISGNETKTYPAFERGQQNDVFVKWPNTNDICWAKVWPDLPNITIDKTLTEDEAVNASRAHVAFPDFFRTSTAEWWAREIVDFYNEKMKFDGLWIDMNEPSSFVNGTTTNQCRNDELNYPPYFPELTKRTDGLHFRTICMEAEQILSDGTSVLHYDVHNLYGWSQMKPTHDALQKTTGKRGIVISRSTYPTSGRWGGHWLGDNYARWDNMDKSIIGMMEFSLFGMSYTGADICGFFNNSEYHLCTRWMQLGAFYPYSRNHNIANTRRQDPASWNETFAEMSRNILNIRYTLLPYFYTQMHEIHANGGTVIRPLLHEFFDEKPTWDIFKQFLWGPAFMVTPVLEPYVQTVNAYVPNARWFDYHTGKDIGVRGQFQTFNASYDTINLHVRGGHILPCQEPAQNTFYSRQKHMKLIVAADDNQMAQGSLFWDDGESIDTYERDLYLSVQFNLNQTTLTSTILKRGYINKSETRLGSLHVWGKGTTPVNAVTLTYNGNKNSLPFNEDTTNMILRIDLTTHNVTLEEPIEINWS
Description: (§3) Disaccharides and monosaccharides were analyzed by HPAE-PAD on the Dionex™ Integrion™ HPIC™ system (Thermo Fisher Scientific). Separation of the carbohydrates was achieved on a CarboPac PA210 column (2 × 150 mm), preceded by a CarboPac PA210 Guard column (2 × 30 mm), with the column and compartment temperatures maintained at 30 °C and 20 °C, respectively. […] Detection was performed using a gold working electrode and AgCl reference electrode at pH ~ 12.0, with a collection rate of 2.00 Hz using the “Gold, Carbo, Quad” waveform. […] A wash injection of only H2O while following the same multistep eluent gradient was performed at the end of every batch (12–14 samples). All injections were performed in duplicate and peak identification was achieved by comparing retention times to the standards. Dionex™ Chromeleon™ 7 Chromatography Data System, version 7.2.9 (Thermo Fisher Scientific, Waltham, MA, USA), was used to process the chromatograms, ensuring peaks were suitably integrated before recording peak area. Sugars were quantified from peak areas using standard curves, with the standards prepared in the same buffer as the samples.
as §1, §2
(§4) Controls (CFE and substrate only) were prepared by replacing the volume of inhibitor with SPB. […] Estimation of inhibition values were determined in GraphPad Prism and the percentage of inhibition of the sample was calculated following Equation (7) below, where SA = specific activity:(7) Inhibition %=SAcontrol − SAsample/SAcontrol×100
(§5) Enzyme assays were performed at least once for CFEs from biological triplicates, with duplicate injections of each analyzed by HPAE-PAD. MS Excel (Microsoft, Redmond, WA, USA) was used for data processing and analysis. Final inhibition values were expressed as the percentage of control activity (%). The IC15, IC25 and IC50 values were calculated based on the plots created using GraphPad, using the dose-response inhibition (log (inhibitor) vs. normalized response—variable slope) model. The same software was used to determine the apparent Km and Vmax values under the enzyme–kinetic inhibition model, and for statistical analyses using non-parametric multiple comparisons tests. A difference was considered significant at p < 0.05 for all comparisons. All data are expressed as the mean ± SD or SEM, specified accordingly.

human isomaltase = target: T2, human isomaltase (Homo sapiens, UniProt P14410); assay: Isomaltase inhibition in Caco-2/TC7 cell-free extract, isomaltose as substrate, HPAE-PAD; assay type: biochemical; settings: for 15% inhibitory concentration (IC15) Isomaltase / 25% inhibitory concentration (IC25) Isomaltase: isomaltose; for percent inhibition of isomaltase at maximum concentration tested: maximum concentration: acarbose 200, EGCG 1500, quercetin 200, quercetagetin 50, kaempferol 40, galangin 25 µM
T2 construct: an in vitro assay using Caco-2/TC7 cell extracts containing sucrase, maltase and isomaltase was conducted; endogenous in cells; host or cells: Caco-2/TC7 (human colon adenocarcinoma), 21 days post-confluence, crude cell-free extract
T2 sequence (P14410 whole entry): as above
Description: as §3, §1, §2, §4, §5

[1] = target: human maltase expressed in yeast; design: method as in PMID 32218677; settings: cited from earlier work
[2] = tested on: human maltase expressed in yeast; assay: Inhibition of human maltase expressed in yeast (literature); assay type: biochemical; settings: compared with this paper and ref 30
yeast α-glucosidase = tested on: yeast α-glucosidase; design: method as in PMID 26212963, PMID 30245236, PMID 31007116, PMID 23137344; settings: cited from earlier work
rat maltase = settings: cited from earlier work
rat sucrase = settings: cited from earlier work
[3] = design: method as in PMID 9414116; settings: cited from earlier work
[4] = Caco-2/TC7 CFE, mean ± SEM, n = 3

| Structure (SMILES) | IC50 (human maltase) | 15% inhibitory concentration (IC15) Maltase (human maltase) | 25% inhibitory concentration (IC25) Maltase (human maltase) | percent inhibition of maltase at maximum concentration tested (human maltase) | 15% inhibitory concentration (IC15) Sucrase (human sucrase) | 25% inhibitory concentration (IC25) Sucrase (human sucrase) | 15% inhibitory concentration (IC15) Isomaltase (human isomaltase; [4]) | 25% inhibitory concentration (IC25) Isomaltase (human isomaltase; [4]) | percent inhibition of isomaltase at maximum concentration tested (human isomaltase) | IC50 (human sucrase) | percent inhibition of sucrase at maximum concentration tested (human sucrase) | further results |
| --- | --- | --- | --- | --- | --- | --- | --- | --- | --- | --- | --- | --- |
| C[C@H]1O[C@H](O[C@H]2[C@H](O)[C@@H](O)[C@@H](O[C@H]3[C@H](O)[C@@H](O)C(O)O[C@@H]3CO)O[C@@H]2CO)[C@H](O)[C@@H](O)[C@@H]1N[C@H]1C=C(CO)[C@@H](O)[C@H](O)[C@H]1O (stereo partly drawn) [Acarbose, acarbose, reference compound] | 13.9 ± 2.3 µM | 2.4 ± 0.4 ^a µM | 4.6 ± 0.8 ^a µM | more than 50% | 0.32 ± 0.05 ^a µM | 0.60 ± 0.09 ^a µM | 7.8 ± 0.7 ^a µM | 14.4 ± 1.1 ^a µM | 96% |  |  |  |
| O=C(O[C@@H]1Cc2c(O)cc(O)cc2O[C@@H]1c1cc(O)c(O)c(O)c1)c1cc(O)c(O)c(O)c1 [EGCG, (−)-epigallocatechin-3-gallate, reference compound] | 186 ± 40.4 µM | 21.7 ± 4.5 ^c µM | 43.8 ± 9.2 ^b µM |  | 41.2 ± 6.0 ^d µM | 72.9 ± 10.3 ^d µM | 118.6 ± 18.0 ^b µM | 241.9 ± 40.4 ^b µM | 71% | 175 ± 60.1 µM | 100% | IC50 [1]: 20 µM; fold lower IC50 (human maltase expressed in yeast) than with Caco-2/TC7 as the enzyme origin [2]: 8–10 fold; IC50 (human isomaltase; Caco-2/TC7 CFE, 20 mM isomaltose, 10 min 37 °C, mean ± SEM, n = 3, read-out: 50% inhibitory concentration (IC50) Isomaltase): 462 ± 60.3 µM |
| O=c1c(O)c(-c2ccccc2)oc2cc(O)cc(O)c12 [Galangin, galangin] |  | 8.7 ± 1.1 ^abc µM | 17.6 ± 2.2 ^a µM | ND (22%) | 12.7 ± 2.1 ^c µM | 20.8 ± 5.5 ^c µM | 9.3 ± 1.2 ^a µM |  |  |  |  | inhibition at 25 µM (human sucrase; read-out: percent inhibition of sucrase at maximum concentration tested): 33%; inhibition at 25 µM (human isomaltase; read-out: percent inhibition of isomaltase at maximum concentration tested): 22% |
| O=c1c(O)c(-c2ccc(O)cc2)oc2cc(O)cc(O)c12 [Kaempferol, kaempferol] |  | 19.0 ± 5.5 ^bc µM |  | ND (25%) | 14.2 ± 3.7 ^c µM | 30.3 ± 8.2 ^c µM | 12.5 ± 3.7 ^a µM | 34.0 ± 8.4 ^a µM | ND (27%) |  | ND (31%) | percent inhibition of maltase at maximum concentration tested (human maltase; listed as kaempferol): < 32%; percent inhibition of sucrase at maximum concentration tested (human sucrase; listed as kaempferol): < 32%; percent inhibition of isomaltase at maximum concentration tested (human isomaltase; listed as kaempferol): < 32%; yeast α-glucosidase inhibition (yeast α-glucosidase): 95% |
| O=c1c(O)c(-c2ccc(O)c(O)c2)oc2cc(O)c(O)c(O)c12 [Quercetagetin, quercetagetin] |  | 3.4 ± 0.9 ^ab µM | 6.7 ± 1.5 ^a µM | ND (48%) | 3.5 ± 1.1 ^b µM | 6.6 ± 1.8 ^b µM | 5.9 ± 1.9 ^a µM | 20.3 ± 7.3 ^a µM | ND (29%) | 21.7 ± 5.3 µM | > 50% |  |
| O=c1c(O)c(-c2ccc(O)c(O)c2)oc2cc(O)cc(O)c12 [Quercetin, quercetin] |  | 43.0 ± 3.1 ^d µM | 82.0 ± 4.6 ^c µM |  | 40.5 ± 5.1 ^d µM | 69.5 ± 8.2 ^d µM | 104.0 ± 18.8 ^b µM |  | ND (18%) | 162 ± 13.6 µM | > 50% | IC50 (rat maltase): 281 µM; IC50 (rat sucrase): > 400 µM; half-life [3]: ~ 24 h |
